Earlier results, collected in patent US20200038317A1, “EXTENDED RELEASE, ABUSE DETERRENT PHARMACEUTICAL COMPOSITIONS” (SpecGX LLC, priority 2012, published 2020).

Conditions: at 25° C.

O=C(O)CC(O)(CC(=O)O)C(=O)O [citric acid]
relative humidity at which the plasticizer deliquesces: about 75 % relative humidity
